Laboratory results published in patent US20250302821A1, “SYNERGISTIC ANTIFUNGAL COMPOSITION AND METHOD” (ST. JUDE CHILDREN'S RESEARCH HOSPITAL, INC., priority 2022, published 2025).

Tests used:
fungi = test: fungicidal activity of NK1-antagonists alone; type: cell-based; conditions: NK1-antagonist alone, at higher concentrations
[1] = system: resistant Candida auris strains; conditions: with fluconazole, voriconazole, itraconazole, cited from earlier work

SMILES	independent fungicidal activity (fungi)	synergistic enhancement of triazole antifungal activity ([1]; C. auris)	restoration of triazole susceptibility ([1]; several resistant Candida auris strains)
Cc1ccccc1-c1cc(N2CCN(C)CC2)ncc1N(C)C(=O)C(C)(C)c1cc(C(F)(F)F)cc(C(F)(F)F)c1 [netupitant, 2-[3,5-bis(trifluoromethyl)phenyl]-N, 2-dimethyl-N-[4-(2-methylphenyl)-6-(4-methylpiperazin-1-yl)pyridin-3-yl]propanamide]	fungicidal activity		
C[C@@H](OC[C@@]1(c2ccccc2)CC[C@]2(CCC(=O)N2)CN1)c1cc(C(F)(F)F)cc(C(F)(F)F)c1 [rolapitant, (5S,8S)-8-[[(1R)-1-[3,5-bis(trifluoromethyl)phenyl]ethoxy]methyl]-8-phenyl-1,9-diazaspiro[4. 5]decan-2-one]	fungicidal activity		
C[C@@H](O[C@H]1OCCN(Cc2nc(=O)[nH][nH]2)[C@H]1c1ccc(F)cc1)c1cc(C(F)(F)F)cc(C(F)(F)F)c1 [aprepitant, 5-[[(2R,3S)-2-[(1R)-1-[3,5-bis(trifluoromethyl)phenyl]ethoxy]-3-(4-fluorophenyl)-4-morpholinyl]methyl]-1,2-dihydro-3H-1,2,4-triazol-3-one]		synergistically enhance the activity	restore fluconazole-, voriconazole-, and itraconazole-susceptibility
